Source: publication PMC8760323, “Single-chain tandem macrocyclic peptides as a scaffold for growth factor and cytokine mimetics” (Communications Biology, 2022)

Assays:
HEL cells [1] = assay: Phospho-CREB ELISA; assay type: cell-based, human
Procedure: Here, 100,000 HEL cells were seeded on a 96-well cell culture plate in RPMI 1640 medium and incubated overnight for starvation. The starved cells were stimulated by rhTPO or TMP-PA8 for 20 min, rinsed once with PBS, and lysed with lysis buffer 17 supplemented with a protease inhibitor cocktail. The phosphorylation level of CREB was assessed using phospho-CREB (Ser133) and the Total CREB ELISA kit (RayBio) according to the manufacturer’s instructions. The amounts of phospho-CREB and total CREB were quantified by measuring absorbance at 450 nm, and the phospho-CREB level was calculated as (absorbance of pCREB)/(absorbance of total CREB).

HEL cells [2] = assay: Phosphokinase array (TPO signal cascade); assay type: cell-based, human; conditions: 5.4 nM rhTPO or 1:1000 diluted TMP-PA8 supernatant, 20 min
Procedure: The TPO signal cascade was analyzed using the Proteome Profiler Human Phosphokinase Array Kit (R&D Systems). Briefly, 1 × 10^6 HEL cells in a 6-well cell culture dish were starved in RPMI 1640 medium for 24 h. The starved cells were stimulated by 5.4 nM rhTPO or 1:1000 diluted TMP-PA8 containing a C. glutamicum supernatant for 20 min, rinsed once with PBS, and lysed with 200 μL of lysis buffer 17 supplemented with a protease inhibitor cocktail. Lysates were analyzed using the Proteome Profiler Human Phosphokinase Array Kit (R&D Systems) according to the manufacturer’s instructions. Chemiluminescence was detected using Amersham Imager 600 (Cytiva).

rhTPO: recombinant human TPO (Peprotech)
Normazlied pCREB/CREB (HEL cells [1]; 7.375 pM, replicate 1): 1.252
Normazlied pCREB/CREB (HEL cells [1]; 7.375 pM, replicate 2): 0.9311
Normazlied pCREB/CREB (HEL cells [1]; 7.375 pM, replicate 3): 0.9649
Normazlied pCREB/CREB (HEL cells [1]; 22.12 pM, replicate 1): 1.113
Normazlied pCREB/CREB (HEL cells [1]; 22.12 pM, replicate 2): 1.1408
Normazlied pCREB/CREB (HEL cells [1]; 22.12 pM, replicate 3): 1.274
Normazlied pCREB/CREB (HEL cells [1]; 66.37 pM, replicate 1): 1.03
Normazlied pCREB/CREB (HEL cells [1]; 66.37 pM, replicate 2): 1.312
Normazlied pCREB/CREB (HEL cells [1]; 66.37 pM, replicate 3): 1.353
Normazlied pCREB/CREB (HEL cells [1]; 199.1 pM, replicate 1): 1.208
Normazlied pCREB/CREB (HEL cells [1]; 199.1 pM, replicate 2): 1.421
Normazlied pCREB/CREB (HEL cells [1]; 199.1 pM, replicate 3): 1.637
Normazlied pCREB/CREB (HEL cells [1]; 597.4 pM, replicate 1): 1.281
Normazlied pCREB/CREB (HEL cells [1]; 597.4 pM, replicate 2): 1.5026
Normazlied pCREB/CREB (HEL cells [1]; 597.4 pM, replicate 3): 1.479
Normazlied pCREB/CREB (HEL cells [1]; 1.79211e-9 M, replicate 1): 1.452
Normazlied pCREB/CREB (HEL cells [1]; 1.79211e-9 M, replicate 2): 1.237
Normazlied pCREB/CREB (HEL cells [1]; 1.79211e-9 M, replicate 3): 1.5195
Normazlied pCREB/CREB (HEL cells [1]; 5.37634e-9 M, replicate 1): 1.523
Normazlied pCREB/CREB (HEL cells [1]; 5.37634e-9 M, replicate 2): 0.9969
Normazlied pCREB/CREB (HEL cells [1]; 5.37634e-9 M, replicate 3): 1.102
promotion of CREB phosphorylation (HEL cells [1]; at concentrations of 0.1-1 nM): 1.5 fold
phosphorylation of STAT3, STAT5, Erk1/2 and CREB compared with unstimulated cells (HEL cells [2]): enhanced
